{"source": "patent EP0821958A2", "about": "(ELI LILLY AND COMPANY, priority 1996, dated 1998)", "key": {"[1]": {"target": "muscarinic cholinergic receptors", "assay": "3H-oxotremorine-M binding inhibition (oxotremorine-M versus N-methylscopolamine binding studies)", "conditions": "inhibition of binding of 3H-oxotremorine-M; read-out: inhibition constant (Ki)"}, "[2]": {"target": "m4 receptors (Homo sapiens, UniProt P08173)", "sequence (P08173 whole entry)": "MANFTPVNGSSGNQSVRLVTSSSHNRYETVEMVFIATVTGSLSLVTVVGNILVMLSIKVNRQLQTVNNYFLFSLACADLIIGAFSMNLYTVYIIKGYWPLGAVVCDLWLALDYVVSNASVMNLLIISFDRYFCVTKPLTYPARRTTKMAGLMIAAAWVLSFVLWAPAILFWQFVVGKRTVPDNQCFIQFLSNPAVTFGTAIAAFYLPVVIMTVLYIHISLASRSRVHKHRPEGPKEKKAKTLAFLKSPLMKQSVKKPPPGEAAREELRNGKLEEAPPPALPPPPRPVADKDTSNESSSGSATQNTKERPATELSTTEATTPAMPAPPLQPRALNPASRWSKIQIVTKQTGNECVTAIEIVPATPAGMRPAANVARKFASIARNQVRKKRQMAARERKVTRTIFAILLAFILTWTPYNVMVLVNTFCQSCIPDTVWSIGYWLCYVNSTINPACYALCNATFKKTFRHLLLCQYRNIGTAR", "format": "cell-based", "conditions": "CHO m4 cells treated with pertussis toxin"}, "[3]": {"target": "D2 receptor subtype (Homo sapiens, UniProt P14416)", "sequence (P14416 whole entry)": "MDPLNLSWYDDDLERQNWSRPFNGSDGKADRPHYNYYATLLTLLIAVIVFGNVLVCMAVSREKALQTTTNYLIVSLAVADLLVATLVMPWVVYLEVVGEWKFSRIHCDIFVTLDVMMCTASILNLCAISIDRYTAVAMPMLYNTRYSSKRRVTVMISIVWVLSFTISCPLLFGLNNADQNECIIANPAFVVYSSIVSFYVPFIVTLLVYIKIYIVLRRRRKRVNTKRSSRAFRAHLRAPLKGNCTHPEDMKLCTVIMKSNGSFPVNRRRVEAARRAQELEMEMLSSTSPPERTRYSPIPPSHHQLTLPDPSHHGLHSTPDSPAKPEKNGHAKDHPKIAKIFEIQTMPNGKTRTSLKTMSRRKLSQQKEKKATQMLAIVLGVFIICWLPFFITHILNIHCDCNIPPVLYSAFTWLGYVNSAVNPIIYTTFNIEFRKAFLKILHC", "assay": "Pharmacological studies at the D2 receptor subtype"}}, "data": [{"smiles": "CCCCCCOc1nsnc1C1=CCCN(C)C1", "note": "[xanomeline, 3-(4-hexyloxy-1,2,5-thiadiazol-3-yl)-1,2,5,6-tetrahydro-1-methylpyridine]", "values": [{"measurement": "Ki", "setting": "[1]", "value": 2, "unit": "nM"}, {"measurement": "formation of cAMP", "setting": "[2]", "value": "efficaciously and potently stimulated the formation of cAMP"}, {"measurement": "activity at the D2 receptor subtype", "setting": "[3]", "value": "active"}]}]}
